Test results reported in patent US6514963B2, “Methods for the inhibition of egg production in trematodes” (The Regents of the University of California, priority 2000, dated 2003).

What was measured:
[1] = molecular target: T1, L channels of isolated skeletal muscle (Oryctolagus cuniculus, UniProt P07293); conditions: read-out: concentration of calcium required for 50% inhibition (Ki) of verapamil binding; isolated skeletal muscle (Galizzi et al. 1984); cited from earlier work
T1 construct: host or cells: isolated skeletal muscle
T1 sequence (P07293 whole entry): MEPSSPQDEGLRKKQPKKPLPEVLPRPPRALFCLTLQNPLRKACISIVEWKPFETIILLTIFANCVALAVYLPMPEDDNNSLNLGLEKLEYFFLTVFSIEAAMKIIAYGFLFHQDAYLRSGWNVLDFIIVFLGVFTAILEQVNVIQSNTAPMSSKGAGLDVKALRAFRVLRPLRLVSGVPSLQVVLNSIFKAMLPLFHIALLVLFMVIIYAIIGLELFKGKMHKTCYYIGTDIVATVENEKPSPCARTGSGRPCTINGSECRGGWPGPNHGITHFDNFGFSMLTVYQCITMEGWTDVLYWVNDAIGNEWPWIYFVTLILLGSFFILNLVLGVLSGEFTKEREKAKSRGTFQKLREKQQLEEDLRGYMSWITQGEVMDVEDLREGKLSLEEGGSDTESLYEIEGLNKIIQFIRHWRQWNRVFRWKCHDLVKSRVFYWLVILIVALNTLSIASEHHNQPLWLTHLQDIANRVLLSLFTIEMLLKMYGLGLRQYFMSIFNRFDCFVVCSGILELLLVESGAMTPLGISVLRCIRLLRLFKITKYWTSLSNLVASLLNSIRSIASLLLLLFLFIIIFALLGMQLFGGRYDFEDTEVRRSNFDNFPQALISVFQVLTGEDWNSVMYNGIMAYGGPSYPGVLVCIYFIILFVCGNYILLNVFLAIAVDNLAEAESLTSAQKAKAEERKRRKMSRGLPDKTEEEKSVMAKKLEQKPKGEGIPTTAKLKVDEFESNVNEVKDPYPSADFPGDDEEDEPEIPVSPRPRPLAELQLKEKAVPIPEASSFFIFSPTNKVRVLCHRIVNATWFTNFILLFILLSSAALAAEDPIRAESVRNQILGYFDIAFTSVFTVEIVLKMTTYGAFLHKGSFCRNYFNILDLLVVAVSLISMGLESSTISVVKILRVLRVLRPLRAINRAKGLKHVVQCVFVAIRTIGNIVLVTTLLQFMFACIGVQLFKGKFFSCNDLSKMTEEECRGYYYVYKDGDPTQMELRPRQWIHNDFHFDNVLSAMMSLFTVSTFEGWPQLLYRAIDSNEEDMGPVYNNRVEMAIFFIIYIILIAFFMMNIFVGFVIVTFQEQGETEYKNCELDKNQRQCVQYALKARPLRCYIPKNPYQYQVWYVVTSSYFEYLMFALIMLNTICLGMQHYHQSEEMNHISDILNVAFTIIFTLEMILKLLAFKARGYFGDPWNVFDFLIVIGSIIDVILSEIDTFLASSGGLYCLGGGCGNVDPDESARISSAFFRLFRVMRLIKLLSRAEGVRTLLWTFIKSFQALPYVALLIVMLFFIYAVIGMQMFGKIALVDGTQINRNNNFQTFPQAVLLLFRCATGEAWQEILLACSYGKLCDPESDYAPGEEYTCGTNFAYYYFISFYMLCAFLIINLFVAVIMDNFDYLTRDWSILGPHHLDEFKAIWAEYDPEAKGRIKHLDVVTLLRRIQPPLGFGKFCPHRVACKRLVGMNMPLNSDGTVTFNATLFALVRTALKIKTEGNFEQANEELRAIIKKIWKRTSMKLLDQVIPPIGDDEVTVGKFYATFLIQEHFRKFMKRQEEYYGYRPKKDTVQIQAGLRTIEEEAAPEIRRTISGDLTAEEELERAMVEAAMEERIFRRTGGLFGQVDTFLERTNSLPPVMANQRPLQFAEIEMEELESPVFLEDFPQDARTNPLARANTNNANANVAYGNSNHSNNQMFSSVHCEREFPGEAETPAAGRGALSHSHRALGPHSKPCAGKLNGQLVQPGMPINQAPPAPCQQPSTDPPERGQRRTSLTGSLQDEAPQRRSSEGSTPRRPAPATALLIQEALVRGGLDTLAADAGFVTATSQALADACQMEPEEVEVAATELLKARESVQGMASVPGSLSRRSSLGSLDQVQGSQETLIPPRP
T1 sequence (P13806 27-960 partner limits assumed): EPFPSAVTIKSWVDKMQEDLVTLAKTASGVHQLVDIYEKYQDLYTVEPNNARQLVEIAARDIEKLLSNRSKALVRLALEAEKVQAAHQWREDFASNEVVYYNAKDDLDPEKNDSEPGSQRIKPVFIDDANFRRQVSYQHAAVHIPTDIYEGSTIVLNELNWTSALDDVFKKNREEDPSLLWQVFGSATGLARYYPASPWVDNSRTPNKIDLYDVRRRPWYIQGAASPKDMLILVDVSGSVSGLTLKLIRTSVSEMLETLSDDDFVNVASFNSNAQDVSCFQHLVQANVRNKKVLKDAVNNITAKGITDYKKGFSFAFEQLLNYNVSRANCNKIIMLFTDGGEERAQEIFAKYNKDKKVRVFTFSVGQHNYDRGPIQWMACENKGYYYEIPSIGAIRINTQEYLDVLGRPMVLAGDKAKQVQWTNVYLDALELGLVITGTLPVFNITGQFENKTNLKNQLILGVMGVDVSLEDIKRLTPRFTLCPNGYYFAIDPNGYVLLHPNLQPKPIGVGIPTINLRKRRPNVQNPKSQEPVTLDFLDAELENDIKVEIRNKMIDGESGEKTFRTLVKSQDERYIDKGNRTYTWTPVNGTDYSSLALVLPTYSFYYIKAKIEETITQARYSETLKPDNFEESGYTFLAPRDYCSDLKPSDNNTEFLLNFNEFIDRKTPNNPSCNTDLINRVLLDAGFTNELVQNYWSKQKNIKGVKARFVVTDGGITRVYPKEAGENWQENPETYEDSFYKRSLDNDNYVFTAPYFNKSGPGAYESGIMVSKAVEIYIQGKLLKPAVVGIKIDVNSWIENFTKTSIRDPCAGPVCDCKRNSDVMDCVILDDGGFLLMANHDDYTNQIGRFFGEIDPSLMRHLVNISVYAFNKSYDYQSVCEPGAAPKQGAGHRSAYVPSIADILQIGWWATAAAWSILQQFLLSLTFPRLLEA
T1 sequence (P13806 961-1106 partner limits assumed): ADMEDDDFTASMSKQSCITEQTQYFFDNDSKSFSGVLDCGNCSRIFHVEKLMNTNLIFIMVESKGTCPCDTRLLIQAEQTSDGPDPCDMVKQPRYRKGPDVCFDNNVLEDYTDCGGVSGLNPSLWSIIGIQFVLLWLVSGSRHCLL
T1 sequence (P19517 whole entry partner): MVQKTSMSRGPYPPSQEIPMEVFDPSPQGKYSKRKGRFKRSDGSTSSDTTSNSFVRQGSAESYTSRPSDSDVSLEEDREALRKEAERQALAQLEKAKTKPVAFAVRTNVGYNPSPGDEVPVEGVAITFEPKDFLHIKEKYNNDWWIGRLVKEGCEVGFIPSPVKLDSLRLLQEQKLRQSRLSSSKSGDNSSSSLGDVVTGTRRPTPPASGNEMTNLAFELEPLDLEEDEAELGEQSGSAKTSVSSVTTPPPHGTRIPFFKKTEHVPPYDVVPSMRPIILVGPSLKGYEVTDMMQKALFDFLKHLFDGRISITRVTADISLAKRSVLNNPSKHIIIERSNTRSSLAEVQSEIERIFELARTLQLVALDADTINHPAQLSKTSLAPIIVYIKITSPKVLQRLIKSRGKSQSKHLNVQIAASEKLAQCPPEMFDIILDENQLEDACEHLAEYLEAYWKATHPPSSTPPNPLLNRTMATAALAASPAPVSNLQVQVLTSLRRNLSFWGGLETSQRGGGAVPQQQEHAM
T1 sequence (P19518 whole entry partner): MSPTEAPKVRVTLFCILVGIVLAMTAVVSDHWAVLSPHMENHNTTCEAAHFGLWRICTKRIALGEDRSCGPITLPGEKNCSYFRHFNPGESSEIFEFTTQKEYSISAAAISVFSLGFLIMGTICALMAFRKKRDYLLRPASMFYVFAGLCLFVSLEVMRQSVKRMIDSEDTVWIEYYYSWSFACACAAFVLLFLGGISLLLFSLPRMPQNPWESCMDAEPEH

Schistosoma mansoni = Schistosoma mansoni in vitro egg production, eight day culture of worm pairs; format: cell-based
Echinostoma caproni = conditions: elevated concentrations (microgram range: verapamil 50-200, nifedipine 25-200, diltiazem 5-50 μg/ml), 24 hours, ANOVA

Structure (SMILES): [Ca] [calcium]
- Ki [1]: ~300 µM

Structure (SMILES): COc1ccc(CCN(C)CCCC(C#N)(c2ccc(OC)c(OC)c2)C(C)C)cc1OC (stereo not drawn) [verapamil, α-[3-[[2-(3,4-dimethoxyphenyl)ethyl]methyl-amine]propyl]-3,4-dimethoxy-α-(1-methylethyl)-benzeneacetonitrile]
- effect on proportion of worms which did not produce eggs until after 48 hours of culture (Schistosoma mansoni; 0.25 μg/ml): not
- effect on proportion of worms producing eggs in the three production categories (Schistosoma mansoni; 0.25 μg/ml and 2.5 μg/ml, Chi Square 4.15, p=0.386): did not significantly affect
- effect on proportion of worms which did not produce eggs until after 48 hours of culture (Schistosoma mansoni; 2.5 μg/ml, Fisher's exact test, p=0.013): significantly increased
- decrease in the total number of eggs produced by all worms of the treatment group (Schistosoma mansoni; 2.5 μg/ml, eight days): 38%
- worms in the highest egg-production category (Schistosoma mansoni; 2.5 μg/ml, control worms 34%): 15%
- proportion of non-producers (Schistosoma mansoni; 25 μg/ml as printed, control worms 17%): 30%
- effect on proportion of non-producers, pairwise comparison with control (Schistosoma mansoni; 50 μg, Fisher Exact test, 2-tailed, p<0.0001): significantly affected egg production
- decrease in the total number of eggs produced by all worms of the treatment group (Schistosoma mansoni; 50 μg/ml, eight days): 100%
- egg production (Schistosoma mansoni; 50 μg/ml, eight days): no eggs were produced at any time
- number of worms producing eggs 48+ Hours (Schistosoma mansoni; verapamil 0.25 μg/ml): 8
- number of worms producing eggs within 48 Hours (Schistosoma mansoni; verapamil 0.25 μg/ml): 24
- number of worms producing eggs 48+ Hours (Schistosoma mansoni; verapamil 2.5 μg/ml): 14
- number of worms producing eggs within 48 Hours (Schistosoma mansoni; verapamil 2.5 μg/ml): 14
- number of worms producing eggs 48+ Hours (Schistosoma mansoni; verapamil 50 μg/ml): 0
- number of worms producing eggs within 48 Hours (Schistosoma mansoni; verapamil 50 μg/ml): 0
- effect on egg production compared to controls (Echinostoma caproni): significantly inhibited
